# From the supplement of paper PMC12076712
# How the values were obtained:
# Test in all cases: pIC50, kinobeads binding competition
# MAP4K2 = target: T1, MAP4K2 (UniProt Q12851)
# T1 sequence (whole entry): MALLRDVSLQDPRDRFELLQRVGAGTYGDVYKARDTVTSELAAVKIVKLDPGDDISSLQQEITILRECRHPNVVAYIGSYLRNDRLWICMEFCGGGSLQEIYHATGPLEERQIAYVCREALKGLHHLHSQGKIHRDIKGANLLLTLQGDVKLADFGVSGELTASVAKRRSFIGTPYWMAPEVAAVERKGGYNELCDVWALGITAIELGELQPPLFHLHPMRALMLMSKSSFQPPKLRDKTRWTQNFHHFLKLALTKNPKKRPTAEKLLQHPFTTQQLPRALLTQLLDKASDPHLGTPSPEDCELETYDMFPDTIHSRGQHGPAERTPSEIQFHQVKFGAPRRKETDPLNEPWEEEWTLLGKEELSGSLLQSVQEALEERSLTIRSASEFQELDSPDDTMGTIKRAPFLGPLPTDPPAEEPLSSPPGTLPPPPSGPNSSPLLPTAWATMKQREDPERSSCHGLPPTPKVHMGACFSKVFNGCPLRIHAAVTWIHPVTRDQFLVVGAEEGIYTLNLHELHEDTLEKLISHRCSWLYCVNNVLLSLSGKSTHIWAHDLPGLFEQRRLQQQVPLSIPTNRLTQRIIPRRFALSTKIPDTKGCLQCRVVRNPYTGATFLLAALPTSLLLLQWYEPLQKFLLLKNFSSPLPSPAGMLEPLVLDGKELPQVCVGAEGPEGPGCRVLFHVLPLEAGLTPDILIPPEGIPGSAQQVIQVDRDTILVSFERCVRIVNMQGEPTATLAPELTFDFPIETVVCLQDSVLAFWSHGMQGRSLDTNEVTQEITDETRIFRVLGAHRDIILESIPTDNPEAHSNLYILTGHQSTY
# Outline: (§1)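 Live Jurkat cells were treated with nine compound concentrations (top 30 μM, 1:4 steps) or DMSO for 60 min at 37 °C before lysis. Alternatively, Jurkat lysate or a 1:1:1:1 HEK293/K-562/HepG2/placenta lysate mix was incubated with nine concentrations (top 30 μM, 1:5 steps) for 60 min at 4 °C. Kinobeads-bound proteins were digested and quantified by TMT10 LC-MS/MS. pIC50 came from logistic dose-response fits (R drc package) of fold changes versus DMSO, in biological duplicates.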
# INSR = INSR (UniProt P06213)
# Chain of INSR (P06213 whole entry): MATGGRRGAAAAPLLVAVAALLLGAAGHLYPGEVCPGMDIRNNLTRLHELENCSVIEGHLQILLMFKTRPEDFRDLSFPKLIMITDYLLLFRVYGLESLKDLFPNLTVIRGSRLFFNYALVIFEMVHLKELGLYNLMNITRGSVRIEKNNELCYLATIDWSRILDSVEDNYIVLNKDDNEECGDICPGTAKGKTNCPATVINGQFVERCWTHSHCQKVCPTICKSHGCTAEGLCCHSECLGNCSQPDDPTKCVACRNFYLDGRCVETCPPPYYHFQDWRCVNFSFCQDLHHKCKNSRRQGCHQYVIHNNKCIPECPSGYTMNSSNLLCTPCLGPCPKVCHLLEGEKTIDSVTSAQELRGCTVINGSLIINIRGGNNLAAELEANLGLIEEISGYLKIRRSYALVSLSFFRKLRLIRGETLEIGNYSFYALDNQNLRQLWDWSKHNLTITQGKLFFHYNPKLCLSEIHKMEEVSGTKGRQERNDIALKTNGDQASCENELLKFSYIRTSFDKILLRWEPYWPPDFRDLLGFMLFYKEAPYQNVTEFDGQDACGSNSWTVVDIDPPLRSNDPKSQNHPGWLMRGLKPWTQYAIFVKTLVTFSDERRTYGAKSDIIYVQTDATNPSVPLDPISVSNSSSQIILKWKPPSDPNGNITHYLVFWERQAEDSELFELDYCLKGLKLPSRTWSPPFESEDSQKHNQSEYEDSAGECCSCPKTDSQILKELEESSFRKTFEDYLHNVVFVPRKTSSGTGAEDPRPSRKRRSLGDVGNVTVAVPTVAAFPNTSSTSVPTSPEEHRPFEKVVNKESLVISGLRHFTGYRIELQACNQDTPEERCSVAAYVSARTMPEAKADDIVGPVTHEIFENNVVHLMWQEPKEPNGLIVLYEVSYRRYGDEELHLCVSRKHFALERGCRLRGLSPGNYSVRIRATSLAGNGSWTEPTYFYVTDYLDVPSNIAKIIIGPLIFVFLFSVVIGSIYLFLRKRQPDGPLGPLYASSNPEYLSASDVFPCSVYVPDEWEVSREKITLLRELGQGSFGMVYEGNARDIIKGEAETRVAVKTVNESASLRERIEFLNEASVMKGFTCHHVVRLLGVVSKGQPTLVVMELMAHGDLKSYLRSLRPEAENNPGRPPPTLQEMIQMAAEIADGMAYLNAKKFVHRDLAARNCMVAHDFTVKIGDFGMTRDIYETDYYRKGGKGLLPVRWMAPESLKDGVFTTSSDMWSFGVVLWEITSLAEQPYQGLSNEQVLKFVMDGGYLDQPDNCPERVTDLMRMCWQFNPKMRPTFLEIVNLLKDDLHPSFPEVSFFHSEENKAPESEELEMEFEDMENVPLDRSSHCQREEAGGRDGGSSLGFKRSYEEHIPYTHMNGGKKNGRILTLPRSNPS
# Outline: as §1
# UniProt P28482 = target: UniProt P28482
# Chain of UniProt P28482 (P28482 whole entry): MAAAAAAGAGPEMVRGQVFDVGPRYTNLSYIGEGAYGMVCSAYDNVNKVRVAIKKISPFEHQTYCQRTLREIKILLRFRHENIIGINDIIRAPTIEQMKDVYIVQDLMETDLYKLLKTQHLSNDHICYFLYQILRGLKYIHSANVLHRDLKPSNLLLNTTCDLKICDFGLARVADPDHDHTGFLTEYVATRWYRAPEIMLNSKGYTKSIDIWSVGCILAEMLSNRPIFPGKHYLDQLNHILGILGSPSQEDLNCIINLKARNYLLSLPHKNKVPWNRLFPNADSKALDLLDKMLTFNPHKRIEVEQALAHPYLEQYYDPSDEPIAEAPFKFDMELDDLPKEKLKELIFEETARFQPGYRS
# Outline: as §1
# UniProt Q8IW41 = target: T2, UniProt Q8IW41
# T2 sequence (whole entry): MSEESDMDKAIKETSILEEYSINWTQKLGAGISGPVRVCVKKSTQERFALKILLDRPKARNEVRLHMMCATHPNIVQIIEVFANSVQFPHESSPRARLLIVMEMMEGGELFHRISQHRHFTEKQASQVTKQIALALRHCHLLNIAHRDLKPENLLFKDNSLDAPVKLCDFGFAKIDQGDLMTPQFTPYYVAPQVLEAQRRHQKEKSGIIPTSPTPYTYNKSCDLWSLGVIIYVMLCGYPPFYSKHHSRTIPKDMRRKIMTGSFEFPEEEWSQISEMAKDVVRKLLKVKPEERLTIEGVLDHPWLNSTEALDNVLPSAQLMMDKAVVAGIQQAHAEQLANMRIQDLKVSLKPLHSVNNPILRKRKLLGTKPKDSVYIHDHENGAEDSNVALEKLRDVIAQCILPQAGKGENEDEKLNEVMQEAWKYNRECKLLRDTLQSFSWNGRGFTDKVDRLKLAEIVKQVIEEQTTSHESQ
# Outline: as §1
# FER = FER (UniProt P16591)
# Chain of FER (P16591 whole entry, looked up): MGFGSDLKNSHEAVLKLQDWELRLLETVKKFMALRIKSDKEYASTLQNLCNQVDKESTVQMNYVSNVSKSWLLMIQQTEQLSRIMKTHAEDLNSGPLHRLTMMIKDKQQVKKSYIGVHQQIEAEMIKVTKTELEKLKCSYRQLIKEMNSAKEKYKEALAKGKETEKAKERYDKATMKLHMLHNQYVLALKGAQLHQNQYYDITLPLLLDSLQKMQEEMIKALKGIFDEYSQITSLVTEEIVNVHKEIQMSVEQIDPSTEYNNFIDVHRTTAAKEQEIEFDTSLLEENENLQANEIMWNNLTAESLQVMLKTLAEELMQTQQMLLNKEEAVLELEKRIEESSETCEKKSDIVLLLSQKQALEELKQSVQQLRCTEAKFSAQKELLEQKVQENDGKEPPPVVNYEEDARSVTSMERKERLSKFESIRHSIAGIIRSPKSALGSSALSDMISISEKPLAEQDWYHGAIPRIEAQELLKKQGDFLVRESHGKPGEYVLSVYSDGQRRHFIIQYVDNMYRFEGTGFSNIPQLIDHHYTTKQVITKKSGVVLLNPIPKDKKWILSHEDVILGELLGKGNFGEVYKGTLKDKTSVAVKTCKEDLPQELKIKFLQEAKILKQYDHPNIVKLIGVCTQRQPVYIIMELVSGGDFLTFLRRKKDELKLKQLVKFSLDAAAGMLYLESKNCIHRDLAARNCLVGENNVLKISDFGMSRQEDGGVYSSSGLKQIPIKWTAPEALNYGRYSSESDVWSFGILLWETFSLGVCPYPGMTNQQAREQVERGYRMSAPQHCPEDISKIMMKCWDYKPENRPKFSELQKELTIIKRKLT
# Outline: as §1
# UniProt Q8TBX8 = target: T3, UniProt Q8TBX8
# T3 sequence (whole entry): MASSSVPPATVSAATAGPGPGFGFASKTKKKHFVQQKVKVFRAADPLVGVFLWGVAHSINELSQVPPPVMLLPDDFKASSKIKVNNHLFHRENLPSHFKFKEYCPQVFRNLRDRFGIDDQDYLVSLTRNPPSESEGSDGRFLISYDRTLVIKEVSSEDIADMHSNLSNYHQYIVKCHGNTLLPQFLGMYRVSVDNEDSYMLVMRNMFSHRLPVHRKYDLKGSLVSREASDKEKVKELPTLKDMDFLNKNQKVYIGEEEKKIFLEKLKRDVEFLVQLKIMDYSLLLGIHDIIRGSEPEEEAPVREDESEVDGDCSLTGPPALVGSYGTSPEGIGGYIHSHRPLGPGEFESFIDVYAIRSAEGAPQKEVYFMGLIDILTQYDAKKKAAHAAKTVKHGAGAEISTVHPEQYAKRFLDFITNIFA
# Outline: as §1
# MARK4 = target: T4, MARK4 (UniProt Q96L34)
# T4 sequence (whole entry): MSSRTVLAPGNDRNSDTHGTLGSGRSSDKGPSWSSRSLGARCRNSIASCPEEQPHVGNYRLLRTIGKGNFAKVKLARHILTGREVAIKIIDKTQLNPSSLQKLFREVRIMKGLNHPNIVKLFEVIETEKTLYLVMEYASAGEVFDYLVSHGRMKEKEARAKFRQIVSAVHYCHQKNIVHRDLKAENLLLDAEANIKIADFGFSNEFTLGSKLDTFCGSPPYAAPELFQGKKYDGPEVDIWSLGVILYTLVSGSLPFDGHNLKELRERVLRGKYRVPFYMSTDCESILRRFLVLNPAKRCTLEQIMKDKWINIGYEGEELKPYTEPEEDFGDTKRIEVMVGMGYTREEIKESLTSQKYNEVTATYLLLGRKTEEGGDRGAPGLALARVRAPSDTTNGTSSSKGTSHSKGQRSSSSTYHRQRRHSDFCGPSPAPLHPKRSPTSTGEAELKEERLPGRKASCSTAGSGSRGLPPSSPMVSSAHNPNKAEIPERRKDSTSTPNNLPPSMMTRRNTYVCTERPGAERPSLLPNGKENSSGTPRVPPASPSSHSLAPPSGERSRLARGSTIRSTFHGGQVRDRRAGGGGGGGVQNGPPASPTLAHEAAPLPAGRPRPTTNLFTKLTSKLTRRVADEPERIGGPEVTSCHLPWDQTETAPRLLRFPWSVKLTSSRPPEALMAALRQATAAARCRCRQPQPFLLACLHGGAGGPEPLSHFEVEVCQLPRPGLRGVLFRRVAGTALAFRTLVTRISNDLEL
# Outline: as §1
Structure (SMILES),pIC50 (MAP4K2; cell material: Jurkat cells),pIC50 (MAP4K2; cell material: Jurkat lysate),pIC50 (MAP4K2; cell material: Lysate mix),pIC50 (INSR; cell material: Jurkat cells),pIC50 (INSR; cell material: Jurkat lysate),pIC50 (INSR; cell material: Lysate mix),pIC50 (UniProt P28482; cell material: Jurkat cells),pIC50 (UniProt P28482; cell material: Jurkat lysate),pIC50 (UniProt P28482; cell material: Lysate mix),pIC50 (UniProt Q8IW41; cell material: Jurkat cells),pIC50 (UniProt Q8IW41; cell material: Jurkat lysate),pIC50 (UniProt Q8IW41; cell material: Lysate mix),pIC50 (FER; cell material: Jurkat cells),pIC50 (FER; cell material: Jurkat lysate),pIC50 (FER; cell material: Lysate mix),pIC50 (UniProt Q8TBX8; cell material: Jurkat lysate),pIC50 (UniProt Q8TBX8; cell material: Lysate mix),pIC50 (MARK4; cell material: Jurkat cells),pIC50 (MARK4; cell material: Jurkat lysate),pIC50 (MARK4; cell material: Lysate mix),pIC50 (UniProt Q8TBX8; cell material: Jurkat cells)
O=C(NCCNC(=O)c1cc(Nc2cc(C3CC3)[nH]n2)nc(N2CCN(Cc3ccc(S(=O)(=O)F)cc3)CC2)n1)OC1CC/C=C/CCC1 (stereo not drawn),5.33,< 4.52,< 4.52,< 4.52,< 4.52,< 4.52,< 4.52,< 4.52,< 4.52,< 4.52,< 4.52,< 4.52,5.6,< 4.52,< 4.52,< 4.52,< 4.52,5.44,< 4.52,< 4.52,
Cc1cc(Nc2cc(C(=O)NCCNC(=O)OC3CC/C=C/CCC3)nc(N3CCN(Cc4ccc(S(=O)(=O)F)cc4)CC3)n2)n[nH]1 (stereo not drawn),,,< 4.52,,,< 4.52,,,< 4.52,,,< 4.52,,,< 4.52,,< 4.52,,,< 4.52,
CCNC(=O)c1cc(Nc2cc(C3CC3)[nH]n2)nc(N2CCN(Cc3ccc(S(=O)(=O)F)cc3)CC2)n1,,,4.88,,,< 4.52,,,< 4.52,,,< 4.52,,,5.62,,< 4.52,,,4.93,
CCNC(=O)c1cc(Nc2cc(C)[nH]n2)nc(N2CCN(Cc3ccc(S(=O)(=O)F)cc3)CC2)n1,,,4.7,,,< 4.52,,,< 4.52,,,< 4.52,,,4.72,,< 4.52,,,< 4.52,
C#CCNC(=O)c1cc(Nc2cc(C3CC3)[nH]n2)nc(N2CCN(Cc3ccc(S(=O)(=O)F)cc3)CC2)n1,5.92,4.56,5.36,4.82,< 4.52,< 4.52,5.48,< 4.52,< 4.52,,< 4.52,< 4.52,6.2,5.44,5.92,< 4.52,< 4.52,5.98,< 4.52,4.81,5.4
C#CCNC(=O)c1cc(Nc2cc(C)[nH]n2)nc(N2CCN(Cc3ccc(S(=O)(=O)F)cc3)CC2)n1,,,4.81,,,< 4.52,,,< 4.52,,,< 4.52,,,4.78,,< 4.52,,,< 4.52,
